Data on 4 compounds can be found in patent US9028856B2, “Synergistic pesticide compositions” (priority 2008, dated 2015).

Like-named read-outs stand apart in the source and are kept apart here.

The format of series [1] is physicochemical. The settings on record: classified from Log P.
Series [2] relates to Cimex lectularius (adults). The experiment in a line: Efficacy on glazed tiles (acetone solutions or EC formulations), continuous exposure. The format is in vivo. The conditions noted are these: for mortality at 50 mg/m2 / mortality at 10 mg/m2: Cimex lectularius, read-out: % KD and Mortality. The procedure: Test Insects: Culex quinquefasciatus (adults) (3 minutes exposure time according to USDA Petri Dish Method), Musca domestica (adults), susceptible and resistant strain, Blattella germanica (males), Cimex lectularius (adults) (all: continuous exposure time)
Application: The EC formulation (diluted with water 1:9) were applied as 0.85 ml solutions onto glazed tiles (15 cm×15 cm)
Evaluation: Knock down after 15, and 30 minutes, 1, 2, 3, 4, 6 and 24 hours (mortality)
Test Insects: Culex quinquefasciatus (adults) (3 minutes exposure time according to USDA Petri Dish Method), Cimex lectularius (adults), Acheta domesticus (middle nymphs) (both: continuous exposure time)
Application: The active ingredients were applied as 1 ml acetone solutions onto glazed tiles (15 cm×15 cm)
Evaluation: Knock down after 3, 9 (mosquitoes only), 15, and 30 minutes, 1, 2, 3, 4 and 24 hours (mortality)
Test Insects: Culex quinquefasciatus (adults) (3 minutes exposure time according to USDA Petri Dish Method), Cimex lectularius (adults), (continuous exposure time)
Test Insects: Cimex lectularius, Culex quinquefasciatus, Musca domestica (all adults, susceptible strains)
Application: The active ingredients were applied as 1 ml acetone solutions onto glazed tiles (15 cm×15 cm), continuous exposure time

For series [3] the following is noted: octanol-water partition coefficient (Log K ow), Table 1; cited from earlier work.
The test system of the next series is spiders. The experiment in a line: Spider control field trial on structures (spider counts in treated and untreated plots). Type of series: in vivo. The conditions noted are these: imidacloprid ca. 22 mg AI per sq. m; deltamethrin ca. 12 mg AI per sq. m. From the text:
Replicated plots (e.g., 1 meter sq. or as site dictates) were defined for treatment and observations. All living spiders in this area were counted, and the trial was begun by sweeping down all webbing, being careful not to harm the resident spiders in the process. The combinations were applied in the very sites formerly occupied by the spiders. The sites were re-visited intermittently, and total number of spiders in treated and untreated plots were counted. The evaluations were continued until the control failed, or as long as was practical. All formulations were diluted in water before treatment. All imidacloprid treatments were applied to the plots at the same rate of ca. 22 mg AI per sq. m. of surface area; deltamethrin was applied at the label rate of ca. 12 mg AI per sq. m. of surface area and served as a positive control. All treatments were replicated in three plots.

In series [4] the test system is ants (persistent ant trails). The experiment in a line: Ant control field trial (ant trail counts after barrier spray). Type of series: in vivo. An excerpt:
The purpose of this example was to consider whether combinations of imidacloprid and adjuvant, believed acting as free radical stabilizers, is effective at controlling ant populations. The general methodology used in this analysis first involved locating a site with persistent ant trails; e.g., trails over surfaces of buildings, at structural guidelines (expansion joints, utility lines, and the like), or points where ants emerge from beneath or behind a structural element. A point of observation was fixed along the trail or point of emergence as the individual plot(s) for observations of the effects of treatment on ant activity. The near environment (structural substrate, mulch beds, ground, and the like) was sprayed to form a continuous barrier that intercepts the trailing ants in a barrier ca. 2 ft up and 2 ft out from foundation wall, and extending 2 to 3 feet on either side of the ant trail. After treatment, the observers returned to observe ant activity and count ant traffic at intervals after treatment. The evaluations were continued until the control failed, or as long as was practical. All formulations were diluted in water before treatment. Application rates, in terms of mg AI per sq. m., were as indicated in the tables. deltamethrin served as a positive control. All treatments were replicated in four plots.

Setting [5] is: 15′, on tiles, insecticide alone (imidacloprid 50 mg/m^2, Bendiocarb 50 mg/m^2, Ethiprole 10 mg/m^2, DTM 1 mg/m^2), no Compound A.
Setting [6] is: 1 h, on tiles, insecticide alone (imidacloprid 50 mg/m^2, Bendiocarb 50 mg/m^2, Ethiprole 10 mg/m^2, DTM 1 mg/m^2), no Compound A.
Where [7] appears, read: 2 h, on tiles, insecticide alone (imidacloprid 50 mg/m^2, Bendiocarb 50 mg/m^2, Ethiprole 10 mg/m^2, DTM 1 mg/m^2), no Compound A.
Setting [8] is: 3 h, on tiles, insecticide alone (imidacloprid 50 mg/m^2, Bendiocarb 50 mg/m^2, Ethiprole 10 mg/m^2, DTM 1 mg/m^2), no Compound A.
The mark [9] stands for this setting: 4 h, on tiles, insecticide alone (imidacloprid 50 mg/m^2, Bendiocarb 50 mg/m^2, Ethiprole 10 mg/m^2, DTM 1 mg/m^2), no Compound A.
[10] abbreviates: 6 h, on tiles, insecticide alone (imidacloprid 50 mg/m^2, Bendiocarb 50 mg/m^2, Ethiprole 10 mg/m^2, DTM 1 mg/m^2), no Compound A.
[11] abbreviates: 24 h, on tiles, insecticide alone (imidacloprid 50 mg/m^2, Bendiocarb 50 mg/m^2, Ethiprole 10 mg/m^2, DTM 1 mg/m^2), no Compound A.

Turning to `CNC(=O)Oc1cccc2c1OC(C)(C)O2` [bendiocarb], in series [1], the “Likelihood of Direct Insect Cuticular Penetration” value (shortened to “Likelihood”) is “Slow (classified as “SLOW” when the compound has a Log P value of about <2.0)”. Further, the “% KD and Mortality” value in series [2] (30′, on tiles, insecticide alone (imidacloprid 50 mg/m^2, Bendiocarb 50 mg/m^2, Ethiprole 10 mg/m^2, DTM 1 mg/m^2), no Compound A) worked out at 100%. The mortality at 50 mg/m2 in series [2] (1 h), in series [2] (2 h), in series [2] (3 h), in series [2] (4 h), in series [2] (6 h) and in series [2] (24 h) was 100% in each case. Also, the mortality at 50 mg/m2 in series [2] worked out at 100%. In series [3], the “Log P” value was 1.7.

As to `CC1(C)[C@H](C(=O)O[C@H](C#N)c2cccc(Oc3ccccc3)c2)[C@@H]1C=C(Br)Br` [deltamethrin], in series [1], the “Likelihood” value is reported as “Fast (classified as “FAST” when it has a Log P value of about >4.0)”. Besides, the “suppression of spider populations relative to the untreated control (cross trial average)” value in the series with spiders came to 83.4%. In series [4], the “reduction in ant activity, cross-trial average (relative to pretreatment counts)” value stood at 57.9%.

With `CC[S+]([O-])c1c(C#N)nn(-c2c(Cl)cc(C(F)(F)F)cc2Cl)c1N` (centres unmarked) [ethiprole], the “Likelihood” value in series [1] is “Fast (classified as “FAST” when it has a Log P value of about >4.0)”. The mortality at 10 mg/m2 in series [2] (setting [5]) came out at 0%; in series [2] (setting [6]) it was 0%; in series [2] (setting [7]) it was 10%; in series [2] (setting [8]) it was 10%; in series [2] (setting [9]), 10%; in series [2] (setting [10]), 70%. For the same compound, the mortality at 10 mg/m2 in series [2] (setting [11]) was found to be 100%. Moreover, the “Log P” value in series [3] is 2.90.

For `O=[N+]([O-])NC1=NCCN1Cc1ccc(Cl)nc1` [imidacloprid], in series [1], the “Likelihood” value was “Slow (classified as “SLOW” when the compound has a Log P value of about <2.0)”. Further, the “suppression of spider populations relative to the untreated control (cross trial average)” value in the series with spiders is listed as “around 24.5%”. For the same compound, the “reduction in ant activity, cross-trial average (relative to pretreatment counts)” value in series [4] worked out at 34.1%. Also, the mortality at 50 mg/m2 in series [2] (setting [5]), in series [2] (setting [6]), in series [2] (setting [7]), in series [2] (setting [8]), in series [2] (setting [9]) and in series [2] (setting [10]) was 100% each time. The mortality at 50 mg/m2 in series [2] (setting [11]) is 100%.
